Patent publication US11472788B2, “Benzoimidazoles as selective inhibitors of indoleamine 2,3-dioxygenases” (BEIGENE, LTD., priority 2017, dated 2022)

target: cellular IDO1 in HeLa cells (Homo sapiens (Human), UniProt P14902); experiment: HeLa Cell-Based IDO1 Kyn (Kynurenine) Production Assay; conditions: IFN-γ induced IDO1, 48 hours incubation, Kyn absorbance at 480 nm
Experimental: HeLa Cell-Based IDO1 Kyn (Kynurenine) Production Assay:
The inhibitory activity of IDO1 inhibitors is determined by using a colorimetric reaction to measure Kyn generated from L-Trp (L-Tryptophon) oxidation by cellular IDO1 in HeLa cells after induction of IDO1 expression by IFN-γ.
Hela cells were obtained from the American Type Culture Collection and recovered in 10% FBS-containing phenol red-free DMEM medium. Cells were plated onto a 96-well plate (100 μl/well) at 8000 cells per well and kept at 37° C. in a humidified incubator supplied with 5% CO2. 4 hours later, Human recombinant IFN-γ (8901SC, CST) was added to cells (final concentration 100 ng/mL) to stimulate endogenous IDOL. Compounds at different concentrations diluted in dimethylsulfoxide (DMSO) were added simultaneously with IFN-γ and 0.4 mM L-Trp. Cells were kept at 37° C. in a humidified incubator supplied with 5% CO2. After 48 hours of incubation, 100 μl supernatant from each well was removed to a new plate. The protein in the medium was precipitated with the addition of 8 μl 6N trichloroacetic acid. The plate was incubated at 60° C. for 30 minutes and then centrifugation at 2500 rpm for 10 minutes to remove sediments. 80 μl supernatants were carefully removed to a new clean plate and added with an equal volume of 2% 4-(Dimethylamino)benzaldehyde (D2004, sigma) dissolved in glacial acetic acid. The absorbance at 480 nm wavelength derived from Kyn was measured using a PHERAstar FS plate reader (BMG LABTECH). The IC5C for each compound was derived from fitting the dose-response data to the four-parameter logistic model by using XLfit software (IDBS).

Chain of cellular IDO1 in HeLa cells (P14902 whole entry): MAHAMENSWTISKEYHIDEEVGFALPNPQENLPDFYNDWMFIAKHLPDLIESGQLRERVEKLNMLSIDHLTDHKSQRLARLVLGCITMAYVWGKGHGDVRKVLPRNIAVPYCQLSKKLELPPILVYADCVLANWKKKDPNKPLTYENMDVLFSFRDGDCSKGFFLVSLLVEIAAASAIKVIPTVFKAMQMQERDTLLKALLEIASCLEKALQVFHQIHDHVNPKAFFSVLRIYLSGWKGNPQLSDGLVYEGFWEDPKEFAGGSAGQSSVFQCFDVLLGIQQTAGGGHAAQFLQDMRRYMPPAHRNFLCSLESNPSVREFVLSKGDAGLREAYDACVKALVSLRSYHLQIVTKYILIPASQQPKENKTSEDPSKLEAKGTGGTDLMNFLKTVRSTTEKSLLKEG

| SMILES | EC50 [nM] |
| --- | --- |
| Fc1ccc2nccc([C@H]3CC[C@H](Cc4nc5cc(C(F)(F)F)ccc5[nH]4)CC3)c2c1 [Example A3a, 6-fluoro-4-((1s,4s)-4-((5-(trifluoromethyl)-1H-benzo[d]imidazol-2-yl)methyl)cyclohexyl)quinoline] | 72 |
| Fc1ccc2nccc([C@H]3CC[C@@H](Cc4nc5cc(C(F)(F)F)ccc5[nH]4)CC3)c2c1 [Example A3b, 6-fluoro-4-((1r,4r)-4-((5-(trifluoromethyl)-1H-benzo[d]imidazol-2-yl)methyl)cyclohexyl)quinoline] | 6.8 |
| CC(C)c1ccc2[nH]c(C[C@H]3CC[C@H](c4ccnc5ccc(F)cc54)CC3)nc2c1 [Example A5a, 6-fluoro-4-((1r,4r)-4-((5-isopropyl-1H-benzo[d]imidazol-2-yl)methyl)cyclohexyl)quinoline] | 184 |
| CC(C)c1ccc2[nH]c(C[C@H]3CC[C@@H](c4ccnc5ccc(F)cc54)CC3)nc2c1 [Example A5b, 6-fluoro-4-((1s,4s)-4-((5-isopropyl-1H-benzo[d]imidazol-2-yl)methyl)cyclohexyl)quinoline] | 23 |
| Fc1ccc2nccc([C@H]3CC[C@H](Cc4nc5cc6c(cc5[nH]4)OCO6)CC3)c2c1 [Example A7a, 6-(((1r,4r)-4-(6-fluoroquinolin-4-yl)cyclohexyl)methyl)-5H-[1,3]dioxolo[4′,5′:4,5]benzo[1,2-d]imidazole] | 87 |
| Fc1ccc2nccc([C@H]3CC[C@@H](Cc4nc5cc6c(cc5[nH]4)OCO6)CC3)c2c1 [Example A7b, 6-(((1s,4s)-4-(6-fluoroquinolin-4-yl)cyclohexyl)methyl)-5H-[1,3]dioxolo[4′,5′:4,5]benzo[1,2-d]imidazole] | 3.6 |
| Fc1ccc2nccc([C@H]3CC[C@H](Cc4nc5cc(OC6CC6)ccc5[nH]4)CC3)c2c1 [Example A8a, 4-((1r,4r)-4-((5-cyclopropoxy-1H-benzo[d]imidazol-2-yl)methyl)cyclohexyl)-6-fluoroquinoline] | 528 |
| Fc1ccc2nccc([C@H]3CC[C@@H](Cc4nc5cc(OC6CC6)ccc5[nH]4)CC3)c2c1 [Example A8b, 4-((1s,4s)-4-((5-cyclopropoxy-1H-benzo[d]imidazol-2-yl)methyl)cyclohexyl)-6-fluoroquinoline] | 50 |
| Cc1c(Br)ccc2[nH]c(C[C@H]3CC[C@H](c4ccnc5ccc(F)cc54)CC3)nc12 [Example A11a, 4-((1r,4r)-4-((5-bromo-4-methyl-1H-benzo[d]imidazol-2-yl)methyl)cyclohexyl)-6-fluoroquinoline] | 135 |
| Cc1c(Br)ccc2[nH]c(C[C@H]3CC[C@@H](c4ccnc5ccc(F)cc54)CC3)nc12 [Example A11b, 4-((1s,4s)-4-((5-bromo-4-methyl-1H-benzo[d]imidazol-2-yl)methyl)cyclohexyl)-6-fluoroquinoline] | 14 |
| Fc1ccc2nccc(C3CCC(Cc4nc5cc(CN6CCCCC6)ccc5[nH]4)CC3)c2c1 (stereo not shown) [Example A15, 6-fluoro-4-(4-((5-(piperidin-1-ylmethyl)-1H-benzo[d]imidazol-2-yl)methyl)cyclohexyl)quinoline] | 1950 |
| Fc1ccc2nccc(C3CCC(Cc4nc5cc(N6CCCCC6)c(Br)cc5[nH]4)CC3)c2c1 (stereo not shown) [Example A16, 4-(4-((6-bromo-5-(piperidin-1-yl)-1H-benzo[d]imidazol-2-yl)methyl)cyclohexyl)-6-fluoroquinoline] | 251 |
| COc1cc2nc(CC3CCC(c4ccnc5ccc(F)cc45)CC3)[nH]c2cc1Br (stereo not shown) [Example A17, 4-(4-((6-bromo-5-methoxy-1H-benzo[d]imidazol-2-yl)methyl)cyclohexyl)-6-fluoroquinoline] | 5 |
| Fc1ccc(C2CCC(Cc3nc4cc(Cl)ccc4[nH]3)CC2)c2ncccc12 (stereo not shown) [Example A24, 8-(4-((5-chloro-1H-benzo[d]imidazol-2-yl)methyl)cyclohexyl)-5-fluoroquinoline] | 158 |
| Fc1ccc(C2CCC(Cc3nc4cc(C5CC5)ccc4[nH]3)CC2)c2cccnc12 (stereo not shown) [Example A25, 5-(4-((5-cyclopropyl-1H-benzo[d]imidazol-2-yl)methyl)cyclohexyl)-8-fluoroquinoline] | 268 |
| Fc1cc2nc(C[C@H]3CC[C@H](c4ccc(F)c5ncccc54)CC3)[nH]c2cc1F [Example A26a, 5-((1r,4r)-4-((5,6-difluoro-1H-benzo[d]imidazol-2-yl)methyl)cyclohexyl)-8-fluoroquinoline] | 466 |
| Fc1cc2nc(C[C@H]3CC[C@@H](c4ccc(F)c5ncccc54)CC3)[nH]c2cc1F [Example A26b, 5-((1s,4s)-4-((5,6-difluoro-1H-benzo[d]imidazol-2-yl)methyl)cyclohexyl)-8-fluoroquinoline] | 205 |
| Clc1ccc2[nH]c(CC3CCC(c4ccncc4)CC3)nc2c1 (stereo not shown) [Example A28, 5-chloro-2-((4-(pyridin-4-yl)cyclohexyl)methyl)-1H-benzo[d]imidazole] | 1810 |
| FC(F)(F)c1cc(C2CCC(Cc3nc4cc(Cl)ccc4[nH]3)CC2)ccn1 (stereo not shown) [Example A29, 5-chloro-2-((4-(2-(trifluoromethyl)pyridin-4-yl)cyclohexyl)methyl)-1H-benzo[d]imidazole] | 179 |
| c1ccc(C2CCC(Cc3nc4cc(C5CC5)ccc4[nH]3)CC2)cc1 (stereo not shown) [Example A31, 5-cyclopropyl-2-((4-phenylcyclohexyl)methyl)-1H-benzo[d]imidazole] | 115 |
| Clc1ccc2[nH]c(C3C4CCC(c5ccccc5)CC43)nc2c1 (stereo not shown) [Example A36, 5-chloro-2-(3-phenylbicyclo[4.1.0]heptan-7-yl)-1H-benzo[d]imidazole] | 1670 |

Next, values leading:

| EC50 [nM] | SMILES |
| --- | --- |
| > 10000 | Fc1ccc2nccc(C3CCC(c4nc5cc(Cl)c(F)cc5[nH]4)CC3)c2c1 (single isomer, unassigned) [Example C1a, 4-(4-(5-chloro-6-fluoro-1H-benzo[d]imidazol-2-yl)cyclohexyl)-6-fluoroquinoline] |
| 24 | Fc1ccc2nccc(C3CCC(c4nc5cc(Cl)c(F)cc5[nH]4)CC3)c2c1 (single isomer, unassigned) [Example C1b, 4-(4-(5-chloro-6-fluoro-1H-benzo[d]imidazol-2-yl)cyclohexyl)-6-fluoroquinoline] |
| 0.96 | Cc1noc(-c2ccc3nc([C@@H](C)[C@H]4CC[C@@H](c5ccnc6ccc(F)cc65)CC4)[nH]c3c2)n1 [B149] |
| 10.9 | CC(c1nc2c(ccc3ncccc32)[nH]1)[C@H]1CC[C@@H](c2ccnc3ccc(F)cc32)CC1 (stereo partly shown) [B150] |
| 62.9 | C[C@H](c1nc2cc(F)c(-c3cccnc3)cc2[nH]1)[C@H]1CC[C@@H](c2ccnc3ccc(F)cc32)CC1 [B152] |
| 3.1 | C[C@@H](c1nc2cc(-c3ccccc3)c(F)cc2[nH]1)[C@H]1CC[C@@H](c2ccnc3ccc(F)cc32)CC1 [B156] |
| 6.9 | C[C@@H](c1nc2cc(C(=O)NC3CC3)c(F)cc2[nH]1)[C@H]1CC[C@@H](c2ccnc3ccc(F)cc32)CC1 [B158] |
| 1.6 | CCOC(=O)c1ccc2[nH]c(C(C)[C@H]3CC[C@@H](c4ccnc5ccc(F)cc54)CC3)nc2c1 (stereo partly shown) [B161] |
| 4.86 | CC(C)OC(=O)c1ccc2nc(C(C)[C@H]3CC[C@@H](c4ccnc5ccc(F)cc54)CC3)[nH]c2c1 (stereo partly shown) [B168] |
| 1.7 | CC(c1nc2c(ccc3ccccc32)[nH]1)[C@H]1CC[C@@H](c2ccnc3ccc(F)cc32)CC1 (stereo partly shown) [B175] |
| 2.9 | CC(C)OC(=O)c1ccc2nc([C@H](C)[C@H]3CC[C@@H](c4ccnc5ccc(F)cc54)CC3)[nH]c2c1 [B176] |
| 6.9 | COC(=O)c1cc(C)c2[nH]c(C(C)C3CCC(c4ccnc5ccc(F)cc45)CC3)nc2c1 (stereo not shown) [B177] |
| 2.7 | CC(c1nc2cc(-c3ccccc3)c(F)cc2[nH]1)C1CCC(c2ccnc3ccc(F)cc23)CC1 (stereo not shown) [B181] |
| 17.1 | Cc1cc(C(=O)NC2CCC2)cc2nc([C@H](C)[C@H]3CC[C@@H](c4ccnc5ccc(F)cc54)CC3)[nH]c12 [B187] |
| 788 | Cc1cc(C(=O)NC2CCC2)cc2nc([C@@H](C)[C@H]3CC[C@@H](c4ccnc5ccc(F)cc54)CC3)[nH]c12 [B188] |
| 1.14 | COC(=O)c1ccc2nc(C(C)[C@H]3CC[C@@H](c4ccnc5ccc(F)cc54)CC3)[nH]c2c1F (stereo partly shown) [B191] |
| 8.97 | CC(c1nc2cc(C(=O)NC3CC3)c(F)c(F)c2[nH]1)[C@H]1CC[C@@H](c2ccnc3ccc(F)cc32)CC1 (stereo partly shown) [B192] |
| > 1000 | COC(=O)c1cccc2nc([C@@H](C)[C@H]3CC[C@@H](c4ccnc5ccc(F)cc54)CC3)[nH]c12 [B208] |
| 1.8 | COC(=O)c1cc2nc(C(C)[C@H]3CC[C@@H](c4ccnc5ccc(F)cc54)CC3)[nH]c2c(F)c1F (stereo partly shown) [B213] |
| 84 | CC(c1nc2ccc(C(=O)NC3COC3)cc2[nH]1)[C@H]1CC[C@@H](c2ccnc3ccc(F)cc32)CC1 (stereo partly shown) [B214] |
| 1.8 | C[C@@H](c1nc2cc(-c3ccccc3)c(F)cc2[nH]1)[C@H]1CC[C@@H](c2ccnc3ccc(F)cc32)CC1 [B218] |
| 13.7 | C[C@H](c1nc2cc(-c3ccccc3)c(F)cc2[nH]1)[C@H]1CC[C@@H](c2ccnc3ccc(F)cc32)CC1 [B219] |
